Assay results from the NIST ThermoML archive (doi:10.1021/je900615b).

Conditions: Liquid, Hot wire method

CCOCC [diethyl ether]
Conditions	thermal conductivity [W/m/K]
314.33 K, 5100 kPa	0.1201
314.44 K, 5300 kPa	0.1205
314.55 K, 30100 kPa	0.1357
314.6 K, 10000 kPa	0.1231
314.95 K, 10100 kPa	0.1236
314.95 K, 20100 kPa	0.1291
314.95 K, 30100 kPa	0.1361
315.01 K, 200 kPa	0.1187
315.13 K, 200 kPa	0.1182
315.21 K, 5200 kPa	0.1202
315.39 K, 30100 kPa	0.1356
315.5 K, 200 kPa	0.1182
315.52 K, 10100 kPa	0.1232
315.56 K, 20200 kPa	0.1289
315.91 K, 20100 kPa	0.1287
335.02 K, 5100 kPa	0.1127
335.13 K, 20300 kPa	0.1222
335.21 K, 5100 kPa	0.1127
335.28 K, 200 kPa	0.1093
335.3 K, 30200 kPa	0.1275
335.33 K, 10200 kPa	0.1159
335.33 K, 19900 kPa	0.1217
335.63 K, 5200 kPa	0.1126
335.71 K, 20400 kPa	0.1224
335.72 K, 10100 kPa	0.1162
335.72 K, 30000 kPa	0.1271
335.78 K, 200 kPa	0.1091
336.08 K, 200 kPa	0.1092
336.13 K, 30200 kPa	0.1269
336.17 K, 10100 kPa	0.1159
354.59 K, 30000 kPa	0.1208
354.75 K, 5000 kPa	0.1044
355.05 K, 10000 kPa	0.1084
355.05 K, 30000 kPa	0.1206
355.08 K, 500 kPa	0.1001
355.18 K, 20000 kPa	0.115
355.32 K, 10100 kPa	0.1082
355.37 K, 5000 kPa	0.1048
355.39 K, 30000 kPa	0.1204
355.52 K, 500 kPa	0.1001
355.52 K, 20000 kPa	0.1148
355.74 K, 5000 kPa	0.1045
355.8 K, 10000 kPa	0.1079
355.82 K, 500 kPa	0.1002
356.03 K, 20000 kPa	0.1147
374.62 K, 10000 kPa	0.1004
374.7 K, 5200 kPa	0.0974
374.92 K, 30000 kPa	0.1132
375.01 K, 29700 kPa	0.1131
375.06 K, 10000 kPa	0.1011
375.22 K, 20000 kPa	0.1081
375.25 K, 5100 kPa	0.0973
375.4 K, 5000 kPa	0.0973
375.46 K, 10000 kPa	0.1008
375.51 K, 29800 kPa	0.1135
375.62 K, 20000 kPa	0.1082
375.72 K, 700 kPa	0.0926
376.18 K, 700 kPa	0.0925
376.28 K, 20000 kPa	0.1076
376.8 K, 700 kPa	0.0923
